Patent US20230151025A1, “SUBSTITUTED THIAZOLOPYRIDINES, SALTS THEREOF AND THEIR USE AS HERBICIDALLY ACTIVE SUBSTANCES” (Bayer Aktiengesellschaft, priority 2020, published 2023)

Experiments:
Type in all cases: in vivo
Stellaria media (STEME) [1] = test: Herbicidal post-emergence action (B), 1280 g/ha
Description: (§1) ABUTH: Abutilon theophrasti AGSTE: Agrostis tenuis ALOMY: Alopecurus myosuroides AMARE Amaranthus retroflexus DIGSA: Digitaria sanguinalis ECHCG: Echinochloa crus-galli KCHSC: Kochia scoparia LOLRI: Lolium rigidum MATIN: Matricaria inodora POAAN: Poa annua POLCO: Polygonum convolvulus SETVI: Setaria viridis STEME: Stellaria media VERPE: Veronica persica VIOTR: Viola tricolor
(§2) Seeds of mono- and dicotyledonous weed plants were placed in plastic pots in sandy loam soil (doubly sown with in each case one species of mono- or dicotyledonous weed plants per pot), covered with soil and cultivated in a greenhouse under controlled growth conditions. 2 to 3 weeks after sowing, the test plants were treated at the one-leaf stage. The compounds of the invention, formulated in the form of wettable powders (WP) or as emulsion concentrates (EC), were applied onto the green parts of the plants as aqueous suspension or emulsion with addition of 0.5% additive at a water application rate of 600 liters per hectare (converted). After the test plants had been kept in the greenhouse under optimum growth conditions for about 3 weeks, the activity of the preparations was rated visually in comparison to untreated controls. For example, 100% activity=the plants have died, 0% activity=like control plants.
(§3) Tables B1 to B12, below, show the effects of selected compounds of the general formula (I) according to table 1 on various harmful plants and an application rate corresponding to 1280 g/ha obtained by the experimental procedure mentioned above.

Veronica persica (VERPE) [2] = test: Herbicidal post-emergence action (B), 1280 g/ha
Description: as §1, §2, §3

[3] = test system: Abutilon theophrasti (ABUTH); test: Herbicidal post-emergence action (B), 1280 g/ha; details: rated visually after about 3 weeks vs untreated controls
Description: as §1, §2, §3

[4] = test system: Amaranthus retroflexus (AMARE); test: Herbicidal post-emergence action (B), 1280 g/ha; details: rated visually after about 3 weeks vs untreated controls
Description: as §1, §2, §3

[5] = test system: Kochia scoparia (KCHSC; Bassia scoparia); test: Herbicidal post-emergence action (B), 1280 g/ha
Description: as §1, §2, §3

Poa annua (POAAN) [6] = test: Herbicidal pre-emergence action (A), 1280 g/ha; details: visual grading after ca. 3 weeks vs untreated controls, 100% = plants have died off, 0% = as control plants
Description: as §1
(§4) Seeds of mono- and dicotyledonous weed plants were sown in plastic pots (double sowings with one species of mono- and one species of dicotyledonous weed plants per pot), in sandy loam, and covered with soil. The compounds according to the invention, formulated in the form of wettable powders (WP) or as emulsifiable concentrates (EC), were applied to the surface of the covering soil as aqueous suspension or emulsion, with the addition of 0.5% of an additive, at an application rate of 600 l of water per hectare (converted). Following treatment, the pots were placed in a greenhouse and kept under optimum growth conditions for the test plants. The visual grading of the damage to the test plants was carried out after ca. 3 weeks in comparison to untreated controls (herbicidal effect in percent (%): 100% effect=plants have died off, 0% effect=as control plants).
(§5) Tables A1 to A12, below, show the effects of selected compounds of the general formula (I) according to table 1 on various harmful plants and an application rate corresponding to 1280 g/ha obtained by the experimental procedure mentioned above.

Setaria viridis (SETVI) [7] = test: Herbicidal pre-emergence action (A), 1280 g/ha; details: visual grading after ca. 3 weeks vs untreated controls
Description: as §1, §4, §5

[8] = test system: Amaranthus retroflexus (AMARE); test: Herbicidal pre-emergence action (A), 1280 g/ha; details: visual grading after ca. 3 weeks vs untreated controls
Description: as §1, §4, §5

Setaria viridis (SETVI) [9] = test: Herbicidal post-emergence action (B), 1280 g/ha; details: rated visually after about 3 weeks vs untreated controls
Description: as §1, §2, §3

Stellaria media (STEME) [10] = test: Herbicidal pre-emergence action (A), 1280 g/ha; details: visual grading after ca. 3 weeks vs untreated controls
Description: as §1, §4, §5

Lolium rigidum (LOLRI) = test: Herbicidal pre-emergence action (A), 1280 g/ha; details: visual grading after ca. 3 weeks vs untreated controls, 100% = plants have died off, 0% = as control plants
Description: as §1, §4, §5

[11] = test system: Kochia scoparia (KCHSC; Bassia scoparia); test: Herbicidal pre-emergence action (A), 1280 g/ha; details: visual grading after ca. 3 weeks vs untreated controls
Description: as §1, §4, §5

[12] = test system: Alopecurus myosuroides (ALOMY); test: Herbicidal pre-emergence action (A), 1280 g/ha; details: visual grading after ca. 3 weeks vs untreated controls, 100% = plants have died off, 0% = as control plants
Description: as §1, §4, §5

[13] = test system: Matricaria inodora (MATIN); test: Herbicidal pre-emergence action (A), 1280 g/ha; details: visual grading after ca. 3 weeks vs untreated controls
Description: as §1, §4, §5

[14] = test system: Echinochloa crus-galli (ECHCG); test: Herbicidal pre-emergence action (A), 1280 g/ha; details: visual grading after ca. 3 weeks vs untreated controls, 100% = plants have died off, 0% = as control plants
Description: as §1, §4, §5

[15] = test system: Alopecurus myosuroides (ALOMY); test: Herbicidal post-emergence action (B), 1280 g/ha; details: rated visually after about 3 weeks vs untreated controls
Description: as §1, §2, §3

[16] = test system: Digitaria sanguinalis (DIGSA); test: Herbicidal pre-emergence action (A), 1280 g/ha; details: visual grading after ca. 3 weeks vs untreated controls, 100% = plants have died off, 0% = as control plants
Description: as §1, §4, §5

Poa annua (POAAN) [17] = test: Herbicidal post-emergence action (B), 1280 g/ha; details: rated visually after about 3 weeks vs untreated controls
Description: as §1, §2, §3

Veronica persica (VERPE) [18] = test: Herbicidal pre-emergence action (A), 1280 g/ha; details: visual grading after ca. 3 weeks vs untreated controls
Description: as §1, §4, §5

[19] = test system: Echinochloa crus-galli (ECHCG); test: Herbicidal post-emergence action (B), 1280 g/ha; details: rated visually after about 3 weeks vs untreated controls
Description: as §1, §2, §3

| SMILES | herbicidal effect STEME (Stellaria media (STEME) [1]) [%] | herbicidal effect VERPE (Veronica persica (VERPE) [2]) [%] | herbicidal activity ABUTH [3] [%] | herbicidal activity AMARE [4] [%] | herbicidal effect KCHSC [5] [%] | POAAN, herbicidal effect in percent (%) (Poa annua (POAAN) [6]) | herbicidal effect SETVI (Setaria viridis (SETVI) [7]) [%] | herbicidal effect AMARE [8] [%] | herbicidal activity SETVI (Setaria viridis (SETVI) [9]) [%] | herbicidal effect STEME (Stellaria media (STEME) [10]) [%] | LOLRI, herbicidal effect in percent (%) (Lolium rigidum (LOLRI)) | herbicidal effect KCHSC [11] [%] | ALOMY, herbicidal effect in percent (%) [12] [%] | herbicidal effect MATIN [13] [%] | ECHCG, herbicidal effect in percent (%) [14] [%] | herbicidal activity ALOMY [15] [%] | DIGSA, herbicidal effect in percent (%) [16] [%] | herbicidal activity POAAN (Poa annua (POAAN) [17]) [%] | herbicidal effect VERPE (Veronica persica (VERPE) [18]) [%] | herbicidal activity ECHCG [19] [%] |
| --- | --- | --- | --- | --- | --- | --- | --- | --- | --- | --- | --- | --- | --- | --- | --- | --- | --- | --- | --- | --- |
| Cc1c(Br)c(-c2ccccc2F)nc2ncsc12 [Example I-186] | 90 | 90 | 90 | 100 | – | – | – | – | – | – | – | – | – | – | – | – | – | – | – | – |
| COC(=O)c1nc2nc(-c3ccccc3F)c(Br)cc2s1 [Example I-054, methyl 6-bromo-5-(2-fluorophenyl)thiazolo[4,5-b]pyridine-2-carboxylate] | – | 90 | 90 | 100 | 90 | 100 | – | – | – | – | – | – | – | – | – | – | – | – | – | – |
| Cc1cc2scnc2nc1-c1cccnc1C [Example I-130] | – | 90 | 90 | – | 90 | 100 | 100 | 90 | – | – | – | – | – | – | – | – | – | – | – | – |
| Cc1cccc(F)c1-c1nc2ncsc2cc1Br [Example I-088] | 100 | 100 | 90 | 100 | 100 | 100 | 100 | 90 | 90 | 90 | 100 | 90 | 100 | 90 | 100 | – | – | – | – | – |
| Fc1ccccc1-c1nc2nc(Cl)sc2cc1Br [Example I-053, 6-bromo-2-chloro-5-(2-fluorophenyl)thiazolo[4,5-b]pyridine] | 100 | – | 90 | – | 90 | 100 | – | – | – | 100 | – | 90 | – | – | – | 100 | 100 | – | – | – |
| Cc1cc2sc(S)nc2nc1-c1ccccc1Cl [Example I-169] | – | 90 | 100 | 90 | 90 | 100 | 90 | 90 | – | – | – | 90 | – | – | 90 | – | – | – | – | – |
| CCc1cc2sc(S(C)(=O)=O)nc2nc1-c1ccccc1F [Example I-059] | – | 100 | 100 | 100 | 90 | 100 | 100 | – | – | – | – | 90 | – | – | – | – | 100 | – | – | – |
| CCc1cc2scnc2nc1C12CCCCC1O2 (stereo not shown) [Example I-152] | – | 100 | 90 | 100 | 90 | 100 | 100 | 90 | – | 90 | 100 | 100 | – | 90 | 100 | 100 | 100 | 100 | 90 | – |
| N#Cc1nc2nc(-c3ccccc3F)c(Br)cc2s1 [Example I-070, 6-bromo-5-(2-fluorophenyl)thiazolo[4,5-b]pyridine-2-carbonitrile] | – | – | 90 | 100 | – | – | 100 | 100 | – | – | – | – | – | – | – | – | – | – | – | – |
| Cc1sccc1-c1ccc2scnc2n1 [Example I-133] | – | – | 90 | 90 | – | 90 | 100 | 90 | – | 90 | 100 | 90 | 100 | – | 100 | – | – | 100 | 90 | 90 |
| Fc1cc(F)c(-c2nc3ncsc3cc2Cl)c(F)c1 [Example I-035] | – | 90 | 90 | 100 | 90 | 100 | 100 | 90 | 90 | 90 | 100 | 90 | 90 | 90 | 100 | 90 | – | 90 | 90 | 90 |
| Cc1nc2nc(-c3ccccc3F)c(C)cc2s1 [Example I-001] | – | – | – | 90 | – | – | 100 | – | 90 | 90 | – | – | – | 90 | 100 | – | – | – | – | – |
